Experiment: Gastrointestinal absorption test, blood concentration of ceftriaxone after intra-duodenal administration
Type: in vivo, Sprague Dawley rat
Conditions: intra-duodenal 40 mg/kg, normal rats
Description: Normal rat (Sprague Dawley, male, weighing about 200 g) was ether-anesthetized, and the abdomen was opened. The duodenum was taken and the nanoparticle liquid formulation containing ceftriaxone was administered thereto at 40 mg/kg as ceftriaxone.
The formulations of Examples 6 and Example 7, and Comparative Example 5 were used for test groups. The formulation of Comparative Example 5 is one containing neither ceftriaxone-counter-ion complex nor polymer, and so having lower drug entrapping rate and incapable of controlling drug dissolution compared with that of Example 6.
Blood was gathered from tail vein at 0, 0.5, 1, 1.5, 2, 3 and 4 hours after the drug administration, and analyzed according to ceftriaxone analysis method of the US Pharmacopoeia. The blood was centrifuged at 3000 rpm for 10 minutes, and pretreated by adding the equal amount of acetonitrile thereto.
As reference group 1, ceftriaxone dissolved in water was administered at 40 mg/kg via the same route as Example 6.
As reference group 2, ceftriaxone dissolved in a physiological saline was intravenously injected at 20 mg/kg.

CO/N=C(\C(=O)N[C@@H]1C(=O)N2C(C(=O)O)=C(CSc3nc(=O)c(=O)[nH]n3C)CS[C@H]12)c1csc(N)n1 [aqueous solution of ceftriaxone, ceftriaxone]
absorption of ceftriaxone in vivo: not nearly absorbed

From US7674767B2, “Nanoparticle compositions of water-soluble drugs for oral administration and preparation methods thereof” (Samyang Corporation, priority 2003, dated 2010)
